Among the test systems are SK-MEL-5 melanoma; HCT-15 colon; KM12 colon; OVCAR-5 ovarian; SK-MEL-2 melanoma; HCC-2998 colon; T-47D breast; MDA-MB-231 breast; DU-145 prostate; PC-3 prostate.
Common to all, as to assay: NCI-60 cell line screen, 48 h

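Dose response: 5 concentrations. Exposure: 48 h. Format: 96-well plates. Endpoint: linear interpolation; highest concentration if not reached. At the GI50, growth is halved. TGI denotes the concentration required for complete inhibition of growth.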

As to `COc1cc2c(c(OC)c1OC)-c1[nH]ncc1CC2`, the TGI with SK-MEL-5 melanoma, in the test with HCT-15 colon, with KM12 colon, in the test on OVCAR-5 ovarian, with SK-MEL-2 melanoma and in the test with HCC-2998 colon was above 100 µM in each case.

For `COC(=O)C1=Nc2c(C)nn(-c3ccccc3)c2N=C(c2ccc(C)cc2)C1`, the TGI with SK-MEL-5 melanoma, in the test on T-47D breast, in the test with HCT-15 colon, with KM12 colon, in the test with MDA-MB-231 breast and in the test with DU-145 prostate was above 10 µM in each case. Moreover, the TGI in the test on PC-3 prostate and with HCC-2998 colon was above 10 µM in each case.

In the case of `O=c1[nH]c(Br)nc2c(Br)c[nH]c12`, the TGI with SK-MEL-5 melanoma, in the test with HCT-15 colon, in the test on KM12 colon, in the test on OVCAR-5 ovarian and in the test on SK-MEL-2 melanoma was above 100 µM each time.

For `Cn1c(CCC#N)nc2ccc(Br)cc2c1=O`, the TGI with SK-MEL-5 melanoma, with HCT-15 colon, in the test with KM12 colon, in the test with OVCAR-5 ovarian, in the test on SK-MEL-2 melanoma and in the test on HCC-2998 colon was above 100 µM each time.

`Cc1ccccc1C(=O)Oc1ccc(Oc2ccccc2)cc1`: the TGI with SK-MEL-5 melanoma, in the test with HCT-15 colon, in the test on KM12 colon, in the test on OVCAR-5 ovarian, in the test on SK-MEL-2 melanoma and in the test with HCC-2998 colon was above 100 µM in each case.

As to `O=C(OCCOCBr)c1ccccc1`, the TGI in the test on SK-MEL-5 melanoma, with HCT-15 colon, with KM12 colon, with OVCAR-5 ovarian, with SK-MEL-2 melanoma and in the test on HCC-2998 colon was above 100 µM each time.

`C(=C\c1csnn1)/c1cccnc1`: the TGI with HCT-15 colon, with KM12 colon, in the test on OVCAR-5 ovarian, with SK-MEL-2 melanoma and with HCC-2998 colon was above 100 µM each time.

For the molecule `COc1ccc2[nH]cc(-c3nc(-c4cn(C)c5ccncc45)cs3)c2c1`, the GI50 in the test on SK-MEL-5 melanoma is 1.64 µM; with HCT-15 colon, 1.88 µM; with KM12 colon, 1.87 µM; in the test with OVCAR-5 ovarian, 2 µM; in the test with MDA-MB-231 breast, 1.87 µM; in the test on DU-145 prostate it was 1.7 µM. Further, the GI50 with SK-MEL-2 melanoma was 15.8 µM; in the test on PC-3 prostate it was 1.98 µM; with HCC-2998 colon it was 1.88 µM. Moreover, the TGI stood at 3.04 µM in the test with SK-MEL-5 melanoma; 3.92 µM in the test on HCT-15 colon; 3.52 µM in the test with KM12 colon; 3.6 µM in the test with OVCAR-5 ovarian; 3.4 µM in the test with MDA-MB-231 breast; 3.11 µM with DU-145 prostate. Moreover, the TGI in the test on SK-MEL-2 melanoma stood at 30.1 µM; with PC-3 prostate, 4.13 µM; in the test on HCC-2998 colon, 3.42 µM.

As for `CC(=O)N1CC2Nc3ccccc3C2CC1CO` (stereo not given), the TGI in the test on SK-MEL-5 melanoma, in the test with HCT-15 colon, in the test with KM12 colon, in the test with OVCAR-5 ovarian, in the test on SK-MEL-2 melanoma and in the test on HCC-2998 colon was above 100 µM throughout.

On to `O=Cc1ccc(-c2ccc(-c3ccc(C=O)s3)o2)s1`, for which the TGI with SK-MEL-5 melanoma is above 100 µM; with HCT-15 colon it was above 100 µM; with KM12 colon, above 100 µM; in the test with OVCAR-5 ovarian it was 11 µM; with MDA-MB-231 breast it was above 100 µM; with DU-145 prostate, above 100 µM. Besides, the TGI in the test on SK-MEL-2 melanoma was above 100 µM; with PC-3 prostate it was above 100 µM; with HCC-2998 colon, 51.5 µM.

Take `CCCNCc1nc2ccc(Br)cc2c(=O)n1CCC`: the TGI with SK-MEL-5 melanoma came to 21.6 µM; in the test on HCT-15 colon, 27.4 µM; with KM12 colon, 29.3 µM; with SK-MEL-2 melanoma it was 25.2 µM.

With `Nc1ccc(Nc2nc(F)nc(-c3c4ccccc4c4n3CCS4)n2)cc1`, the TGI with SK-MEL-5 melanoma was 25.8 µM; in the test on HCT-15 colon, 25.5 µM; in the test on KM12 colon, 26.5 µM; in the test on OVCAR-5 ovarian it was 32.8 µM; with SK-MEL-2 melanoma it was 29.3 µM; in the test with HCC-2998 colon, 44.8 µM.

On to `COc1cc(OC)c2c(=O)c(O)c(-c3ccc(OC)c(OC)c3)oc2c1`, for which the TGI is above 100 µM in the test on SK-MEL-5 melanoma; 31.4 µM with T-47D breast; above 100 µM in the test with HCT-15 colon; above 100 µM with KM12 colon; above 100 µM in the test on OVCAR-5 ovarian; above 100 µM with MDA-MB-231 breast. In addition, the TGI is above 100 µM in the test with DU-145 prostate, above 100 µM with PC-3 prostate and 9.34 µM in the test on HCC-2998 colon.

As to `Cc1ccc(C)c(NC(=O)c2cc(-c3ccc([N+](=O)[O-])cc3)nc(N)n2)c1`, the TGI in the test on SK-MEL-5 melanoma, in the test on HCT-15 colon, in the test on KM12 colon, in the test with OVCAR-5 ovarian, in the test on SK-MEL-2 melanoma and with HCC-2998 colon was above 100 µM in each case.

Regarding `COC(OC)c1cccc2c1C1(O)CCC3(CC21)OCCCCO3` (stereo not given), the TGI in the test with SK-MEL-5 melanoma, in the test on HCT-15 colon, in the test with KM12 colon, in the test with OVCAR-5 ovarian, with SK-MEL-2 melanoma and in the test with HCC-2998 colon was above 100 µM in each case.

Take `O=C(O)C1C2CC3C(OC(=O)C31)C2Br` (stereo not given): the TGI in the test with SK-MEL-5 melanoma, in the test with T-47D breast, in the test on HCT-15 colon, in the test on KM12 colon, in the test with OVCAR-5 ovarian and with MDA-MB-231 breast was above 100 µM in each case. Also, the TGI in the test on DU-145 prostate, in the test on SK-MEL-2 melanoma and in the test with PC-3 prostate was above 100 µM each time.

On to `O=C(CCC(=O)Nc1ccc(Cl)cc1)CC(=O)c1ccc(F)cc1`, for which the TGI with HCT-15 colon, in the test on KM12 colon, in the test on OVCAR-5 ovarian, in the test on SK-MEL-2 melanoma and in the test on HCC-2998 colon was above 100 µM each time.
